Test results taken from US20100104546A1, “MODULATORS OF ANTIGEN-DEPENDENT T CELL PROLIFERATION” (CHILDREN, YOUTH AND WOMEN'S HEALTH SERVICE, priority 2007, published 2010).

Key:
[1] = tested on: circulating cytokine levels; assay: Circulating cytokine levels in SRBC-sensitized mice after intravenous SRBC challenge; assay type: in vivo; settings: serum, 80 mg/kg IP, 6 h after IV SRBC
Description: Mice were injected subcutaneously with SRBC. After 5 days β-oxa-21:3n-3 (80 mg/kg) or vehicle (whole mouse serum) were injected intraperitoneally. 2 hours later SRBC were injected intravenously. The blood was collected from orbital plexus at 6 hours post intravenous SRBC injection. Serum was separated and frozen immediately at −70° C. The levels of cytokine were measured using BD mouse CBA kits using a BD Array instrument (BD, La Jolla, Calif.).
The insights from these cytokine studies prompted us to investigate whether injected β-oxa-21:3n-3 could regulate cytokine levels in vivo. The β-oxa-21:3n-3- or vehicle-administered pre-immune animals were challenged intravenously with SRBC; after 6 h the serum prepared from the mouse blood and cytokine levels measured.

[2] = tested on: delayed-type hypersensitivity to SRBC antigen; settings: intraperitoneal administration, mouse hind paws; cited from earlier work
spleen cells = assay: Viability and composition of splenic cells by microscopy and flow cytometry; assay type: in vivo, mice
Description: Data acquisition was performed using a BD Immunocytometry Systems four-color FACScalibur (Mountain View, Calif.), and the acquired data were analyzed using FloJo software (Tree Star Inc., Palo Alto, Calif.).
To exclude that this effect of β-oxa-21:3n-3 was not due to necrosis or apoptosis of the splenic cells, we examined the viability and composition of live splenic cells from animals treated with this fatty acid, by microscopy and flow cytometry.

[3] = tested on: splenic T cells and MHC class II cells; assay: Co-culture of enriched splenic T cells and MHC class II cells, SRBC-induced proliferation; assay type: in vivo, mice; settings: 80 mg/kg IP, 3 days
Description: (A) β-oxa-21:3n-3 (80 mg/kg) or vehicle was injected once intraperitoneally to 5 days SRBC-sensitized mice. After the indicated time period spleens were removed and cell suspensions were incubated in the presence or absence of SRBC for 3 days. Thymidine incorporation for final 16 hours of culture was determined. Percent inhibition of proliferation by β-oxa-21:3n-3 compared to vehicle injected animals are depicted against duration of exposure. (B) β-oxa-21:3n-3 (80 mg/kg) or vehicle was injected once intraperitoneally to 5 days SRBC-sensitized mice. After two hours spleens were removed and T cell and MHC II positive cells were enriched using MACS magnetic beads. As indicated, vehicle and β-oxa-21:3n-3 injected animal's enriched cells were then co-cultured in the presence or absence of SRBC for 3 days. Thymidine incorporation for final 16 h of culture was determined. Splenocytes proliferation is plotted versus the type of co-cultured cells.
In co-culture experiments negative selection purification systems were utilized to ensure isolation of untouched cells to avoid side effects on cell viability and activity. […] For accuracy in cell counts and cell viability, the enriched cells were also inspected by hemocytometer and then counted using Cell-Dyne 3500R (ABBOTT, Inc. MA) and then co-cultured. […]

splenocytes = assay: Mitogen (PHA/PMA, PMA/A23187, PHA)-stimulated splenocyte adhesion and proliferation, ex vivo; assay type: in vivo, mice
Description: (A) β-oxa-21:3n-3 or vehicle was injected intraperitoneally to 5 day SRBC-sensitized mice. After 2 h splenocytes (1×10^6 cells) were cultured in a 24 well tissue culture plate (Nunc, Inc. […] Cells were fixed with 2% Para formaldehyde and inspected under a light microscopy and photographed. (B) β-oxa-21:3n-3 or vehicle was injected intraperitoneally or intravenously to 5 day SRBC-sensitized mice. After 2 h splenocytes (0.2 million) were cultured in a 96 well tissue culture plate (Nunc, Inc. Denmark) in the presence of PHA and PMA (PHA/PMA) or PMA (10 ng/ml) and A23187 ([…]) (PMA/A23187) for 3 days. Thymidine incorporation for final 16 hours of culture was determined. The data represents the mean±SEM of 3 separate experiments each conducted in quintuplets.
6-7 weeks old Balb/c mice were injected subcutaneously with 100 μl of 10% sheep red blood cells (IMVS, Inc., Adelaide, Australia) After 5 days 100 ul of β-oxa-21:3n-3 at indicated amounts were injected intraperitoneally, intravenously or gavaged orally. In another experimental set up mice were given β-tha-21:3n-3 i.p. In a third approach mice were infected subcutaneously with 100 μl of Tetanus Toxoid (2,500 Lf/ml). Then 7 days later were given β-oxa-21:3n-3. At indicated time points mice were sacrificed and spleens were removed. Single cell suspensions were prepared and white blood cells (WBC) were enriched by passing through Ficoll-Paque Plus (GE Healthcare). Cells were washed with RPMI-1640 containing 10% fetal bovine serum, 10 mM Hepes, antibiotics and glutamine (RPMI-10) and counted using an automated Cell-Dyne 3500R (Abbott, Inc. MA) instrument. Cells were viable (>98%) as judged by trypan blue exclusion. (β-oxa-21:3n-3)- or vehicle-treated mouse samples (200,000/well) were mixed either with SRBC (600,000/well) with 100 μl of Tetanus toxoid (50 Lf/ml) or phytohaemaglutinin (PHA) (2 μg/ml) or with PHA plus phorbol myristate acetate (PMA) (10 ng/ml) or with PMA plus calcium ionophore A23187 ([…]). Cells were cultured in 96 well U bottom plates (Nunc, Inc. Denmark) for 3 days (except for TT −5 days) at 37° C. under humidified air containing 5% CO2. At some instances 50 μl of supernatants were transferred to a new plate and frozen immediately at −70° C. to be used for cytokine measurements. Thymidine (50 μl, 1 μCi/well) was added at final 16 hours of culture. Cells were harvested and thymidine incorporation was determined using a beta scintillation counter.
To assess whether or not the immunosuppression observed was restricted to antigen-dependent stimulation, we explored the effect of β-oxa-21:3n-3 on mitogen-induced splenocyte adhesion and proliferation. […] The cells were cultured for 3 days and the extent of proliferation was assessed by thymidine incorporation.

[4] = IP- or IV-administered, 3 days culture, thymidine incorporation

Which results are given for CC/C=C\C/C=C\C/C=C\CCCCCCCCOCC(=O)O [β-oxa-21:3n-3]?
IFNγ conc [1]: 229 ± 40 pg/mL; IL-2 conc [1]: 73 ± 10 pg/mL; IL-4 conc [1]: 3.5 ± 2 pg/mL; IL-5 conc [1]: 120 ± 21 pg/mL; IL-6 conc [1]: 35 ± 8 pg/mL; IL-10 conc [1]: 9 ± 5 pg/mL; IL-12 conc [1]: 320 ± 145 pg/mL; IL-13 conc [1]: 0 ± 0 pg/mL; KC conc [1]: 61 ± 21 pg/mL; MCP-1 conc [1]: 2039 ± 457 pg/mL; TNFα conc [1]: 15 ± 3 pg/mL; delayed-type hypersensitivity to SRBC antigen [2]: inhibition; viable cells (excluded propidium iodide) (spleen cells; spleen cells from treated SRBC-sensitized mice): > 95%; viable cell numbers versus vehicle-treated mice (spleen cells; spleen cells, SRBC-sensitized mice): no major difference; splenocyte proliferation, MHC class II cells from treated animals co-cultured with T cells from either treated or vehicle animals [3]: no suppression; splenocyte proliferation, T cells from treated animals co-cultured with MHC class II cells from treated or vehicle animals [3]: suppressed; splenocyte proliferation in response to PHA-PMA (splenocytes; [4]): not affected in their responsiveness; splenocyte proliferation in response to PMA-A23187 (splenocytes; [4]): not affected in their responsiveness; splenocyte adherence (splenocytes; PHA and PMA stimulation for 4 h, SRBC pre-sensitized mice): not affected; splenocyte proliferation in response to PHA alone (splenocytes; not shown): did not affect
